Consider 16 compounds from patent publication US9409922B2, “Imidazopyridine macrocycles as inhibitors of human immunodeficiency virus replication” (priority 2014, dated 2016).

Broadly, the EC50 is the concentration needed to bring the measured effect to its halfway point. Lower therefore signals higher potency in that assay.

The first test has as its system NL-RLuc virus. Put plainly: Inhibition of HIV replication: NL-RLuc reporter virus in MT-2 cells, luciferase readout. It counts as cell-based. Particulars: Human immunodeficiency virus 1, MT2, 120 h, MT-2 cells infected with NL-RLuc virus, 5 days of incubation, 10% FBS, at least 2 experiments. An excerpt: Inhibition of HIV Replication:
A recombinant NL-RLuc proviral clone was constructed in which a section of the nef gene from NL4-3 was replaced with the Renilla Luciferase gene. This virus is fully infectious and can undergo multiple cycles of replication in cell culture. In addition, the luciferous reporter provides a simple and easy method for quantitating the extent of virus growth and consequently, the antiviral activity of test compounds. The plasmid pNLRLuc contains the proviral NL-Rluc DNA cloned into pUC 18 at the PvuII site. The NL-RLuc virus was prepared by transfection of 293T cells with the plasmid pNLRLuc. Transfections were performed using the LipofectAMINE PLUS kit from Invitrogen (Carlsbad, Calif.) according to the manufacturer and the virus generated was titered in MT-2 cells. For susceptibility analyses, the titrated virus was used to infect MT-2 cells in the presence of compound, and after 5 days of incubation, cells were processed and quantitated for virus growth by the amount of expressed luciferase. Assay media was RPMI 1640 supplemented with 10% heat inactivated fetal bovine serum (FBS), 100 units/ml penicillin G/100 units/ml streptomycin, 10 mM HEPES buffer pH 7.55 and 2 mM L-glutamine. The results from at least 2 experiments were used to calculate the EC50 values. Luciferase was quantitated using the Dual Luciferase kit from Promega (Madison, Wis.). Susceptibility of viruses to compounds was determined by incubation in the presence of serial dilutions of the compound. The 50% effective concentration (EC50) was calculated by using the exponential form of the median effect equation where (Fa)=1/[1+(ED50/drug conc.)^m](Johnson V A, Byington R T. Infectivity Assay. In Techniques in HIV Research. ed. Aldovini A, Walker B D. 71-76. New York: Stockton Press. 1990).
For `Cc1cc2c(cc1F)-c1cccc(c1)-c1cn3c(c([C@H](OC(C)(C)C)C(=O)O)c(C)cc3n1)N1CCC(C)(CC1)OCCCC[C@H](C)O2` [Example 20, (2S)-2-(tert-Butoxy)-2-[(22S)-17-fluoro-4,18,22,28-tetramethyl-21,27-dioxa-1,7,34-triazahexacyclo[26.2.2.1^6,^9.1^10,^14.0^2,^7.0^15,^20]tetratriaconta-2,4,6(34),8,10(33),11,13,15(20),16,18-decaen-3-yl]acetic acid], the concentration for a half-maximal effect (EC50) came to 0.011 µM.

`Cc1cc(F)c2c(c1)O[C@@H](C)CCCCOC1(C)CCN(CC1)c1c([C@H](OC(C)(C)C)C(=O)O)c(C)cc3nc(cn13)-c1cccc-2c1` [Example 21, (2S)-2-(tert-Butoxy)-2-[(22S)-16-fluoro-4,18,22,28-tetramethyl-21,27-dioxa-1,7,34-triazahexacyclo[26.2.2.1^6,^9.1^10,^14.0^2,^7.0^15,^20]tetratriaconta-2,4,6(34),8,10(33),11,13,15(20),16,18-decaen-3-yl]acetic acid] displayed a concentration giving a half-maximal response (EC50) of 0.005 µM.

The compound `Cc1ccc2c(c1)-c1cccc(c1)-c1nc3cc(C)c([C@H](OC(C)(C)C)C(=O)O)c(n3c1Cl)N1CCC(C)(CC1)OCCCC[C@H](C)O2` [Example 22, (2S)-2-(tert-Butoxy)-2-[(22S)-8-chloro-4,17,22,28-tetramethyl-21,27-dioxa-1,7,34-triazahexacyclo[26.2.2.1^6,^9.1^10,^14.0^2,^7.0^15,^20]tetratriaconta-2,4,6(34),8,10(33),11,13,15(20),16,18-decaen-3-yl]acetic acid] yielded an EC50 of 0.024 µM.

In turn, `Cc1cc2nc3c(Cl)n2c(c1[C@H](OC(C)(C)C)C(=O)O)N1CCC(C)(CC1)OCCCC[C@H](C)Oc1cc(F)c(F)cc1-c1cccc-3c1` [Example 23, (2S)-2-(tert-Butoxy)-2-[(22S)-8-chloro-17,18-difluoro-4,22,28-trimethyl-21,27-dioxa-1,7,34-triazahexacyclo[26.2.2.1^6,^9.1^10,^14.0^2,^7.0^15,^20]tetratriaconta-2,4,6(34),8,10(33),11,13,15(20),16,18-decaen-3-yl]acetic acid] returned a concentration giving a half-maximal response (EC50) of 0.019 µM.

As to `Cc1cc2c(cc1F)-c1cccc(c1)-c1nc3cc(C)c([C@H](OC(C)(C)C)C(=O)O)c(n3c1Cl)N1CCC(C)(CC1)OCCCC[C@H](C)O2` [Example 24, (2S)-2-(tert-Butoxy)-2-[(22S)-8-chloro-17-fluoro-4,18,22,28-tetramethyl-21,27-dioxa-1,7,34-triazahexacyclo[26.2.2.1^6,^9.1^10,^14.0^2,^7.0^15,^20]tetratriaconta-2,4,6(34),8,10(33),11,13,15(20),16,18-decaen-3-yl]acetic acid], the midpoint of the response, the EC50, lay at 0.02 µM.

For `Cc1cc2c(cc1C)-c1cccc(c1)-c1nc3cc(C)c([C@H](OC(C)(C)C)C(=O)O)c(n3c1Cl)N1CCC(C)(CC1)OCCCC[C@H](C)O2` [Example 25, (2S)-2-(tert-Butoxy)-2-[(22S)-8-chloro-4,17,18,22,28-pentamethyl-21,27-dioxa-1,7,34-triazahexacyclo[26.2.2.1^6,^9.1^10,^14.0^2,^7.0^15,^20]tetratriaconta-2,4,6(34),8,10(33),11,13,15(20),16,18-decaen-3-yl]acetic acid], the EC50 turned out to be 0.03 µM.

Consider `Cc1cc2nc3c(F)n2c(c1[C@H](OC(C)(C)C)C(=O)O)N1CCC(C)(CC1)OCCCC[C@H](C)Oc1cc(F)c(F)cc1-c1cccc-3c1` [Example 26, (2S)-2-(tert-Butoxy)-2-[(22S)-8,17,18-trifluoro-4,22,28-trimethyl-21,27-dioxa-1,7,34-triazahexacyclo[26.2.2.1^6,^9.1^10,^14.0^2,^7.0^15,^20]tetratriaconta-2,4,6(34),8,10(33),11,13,15(20),16,18-decaen-3-yl]acetic acid], for which a half-maximal response (EC50) required 0.026 µM.

`Cc1cc2c(cc1F)-c1cccc(c1)-c1nc3cc(C)c([C@H](OC(C)(C)C)C(=O)O)c(n3c1Br)N1CCC(C)(CC1)OCCCC[C@H](C)O2` [Example 27, (2S)-2-[(22S)-8-Bromo-17-fluoro-4,18,22,28-tetramethyl-21,27-dioxa-1,7,34-triazahexacyclo[26.2.2.1^6,^9.1^10,^14.0^2,^7.0^15,^20]tetratriaconta-2,4,6(34),8,10(33),11,13,15(20),16,18-decaen-3-yl]-2-(tert-butoxy)acetic acid] displayed an EC50 of 0.013 µM.

`Cc1cc2c(cc1F)-c1cccc(c1)-c1nc3c(Br)c(C)c([C@H](OC(C)(C)C)C(=O)O)c(n3c1Cl)N1CCC(C)(CC1)OCCCC[C@H](C)O2` [Example 29, (2S)-2-[(22S)-5-Bromo-8-chloro-17-fluoro-4,18,22,28-tetramethyl-21,27-dioxa-1,7,34-triazahexacyclo[26.2.2.1^6,^9.1^10,^14.0^2,^7.0^15,^20]tetratriaconta-2,4,6(34),8,10(33),11,13,15(20),16,18-decaen-3-yl]-2-(tert-butoxy)acetic acid] gave an EC50 of 0.03 µM.

For the compound `Cc1cc2c(cc1F)-c1cccc(c1)-c1cn3c(c([C@H](OC(C)(C)C)C(=O)O)c(C)c(C)c3n1)N1CCC(C)(CC1)OCCCC[C@H](C)O2` [Example 30, (2S)-2-(tert-Butoxy)-2-[(22S)-17-fluoro-4,5,18,22,28-pentamethyl-21,27-dioxa-1,7,34-triazahexacyclo[26.2.2.1^6,^9.1^10,^14.0^2,^7.0^15,^20]tetratriaconta-2,4,6(34),8,10(33),11,13,15(20),16,18-decaen-3-yl]acetic acid], the 50% effective concentration (EC50) came to 0.021 µM.

`Cc1cc2c(cc1F)-c1cccc(c1)-c1cn3c(c([C@H](OC(C)(C)C)C(=O)O)c(C)c(NS(C)(=O)=O)c3n1)N1CCC(C)(CC1)OCCCC[C@H](C)O2` [Example 31, (2S)-2-(tert-Butoxy)-2-[(22S)-17-fluoro-5-methanesulfonamido-4,18,22,28-tetramethyl-21,27-dioxa-1,7,34-triazahexacyclo[26.2.2.1^6,^9.1^10,^14.0^2,^7.0^15,^20]tetratriaconta-2,4,6(34),8,10(33),11,13,15(20),16,18-decaen-3-yl]acetic acid] showed an EC50 of 0.019 µM.

`Cc1c([C@H](OC(C)(C)C)C(=O)O)c2n3cc(nc3c1Br)-c1cccc(c1)-c1cc(F)ccc1O[C@@H](C)CCCCOC1(C)CCN2CC1` [Example 32, (2S)-2-[(22S)-5-Bromo-17-fluoro-4,22,28-trimethyl-21,27-dioxa-1,7,34-triazahexacyclo[26.2.2.1^6,^9.1^10,^14.0^2,^7.0^15,^20]tetratriaconta-2,4,6(34),8,10(33),11,13,15(20),16,18-decaen-3-yl]-2-(tert-butoxy)acetic acid] came in with an EC50 of 0.01 µM.

`Cc1c([C@H](OC(C)(C)C)C(=O)O)c2n3cc(nc3c1C)-c1cccc(c1)-c1cc(F)ccc1O[C@@H](C)CCCCOC1(C)CCN2CC1` [Example 33, (2S)-2-(tert-Butoxy)-2-[(22S)-17-fluoro-4,5,22,28-tetramethyl-21,27-dioxa-1,7,34-triazahexacyclo[26.2.2.1^6,^9.1^10,^14.0^2,^7.0^15,^20]tetratriaconta-2,4,6(34),8,10(33),11,13,15(20),16,18-decaen-3-yl]acetic acid] showed a concentration giving a half-maximal response (EC50) of 0.025 µM.

The compound `Cc1cc2nc3cn2c(c1[C@H](OC(C)(C)C)C(=O)O)N1CCC(C)(CC1)OC/C=C/C[C@H](C)Oc1c(F)cccc1-c1cccc-3c1` [Example 34, (2S)-2-(tert-Butoxy)-2-[(22S,24E)-19-fluoro-4,22,28-trimethyl-21,27-dioxa-1,7,34-triazahexacyclo[26.2.2.1^6,^9.1^10,^14.0^2,^7.0^15,^20]tetratriaconta-2,4,6(34),8,10(33),11,13,15(20),16,18,24-undecaen-3-yl]acetic acid] showed a 50% effective concentration (EC50) of 0.003 µM.

`Cc1cc2nc3cn2c(c1[C@H](OC(C)(C)C)C(=O)O)N1CCC(C)(CC1)OCCCC[C@H](C)Oc1c(F)cccc1-c1cccc-3c1` [Example 35, (2S)-2-(tert-Butoxy)-2-[(22S)-19-fluoro-4,22,28-trimethyl-21,27-dioxa-1,7,34-triazahexacyclo[26.2.2.1^6,^9.1^10,^14.0^2,^7.0^15,^20]tetratriaconta-2,4,6(34),8,10(33),11,13,15(20),16,18-decaen-3-yl]acetic acid]: the EC50 was 0.007 µM.

The test is the same for the next values; noted with them: MT-2 cells infected with NL-RLuc virus, 5 days of incubation, 10% FBS, at least 2 experiments.
`Cc1cc2c(cc1F)-c1cccc(c1)-c1nc3cc(C)c([C@H](OC(C)(C)C)C(=O)O)c(n3c1Br)N1CCC(C)(CC1)OCCCC[C@H](C)O2` [Example 28, (2S)-2-[(22S)-8-Bromo-17-fluoro-4,18,22,28-tetramethyl-21,27-dioxa-1,7,34-triazahexacyclo[26.2.2.1^6,^9.1^10,^14.0^2,^7.0^15,^20]tetratriaconta-2,4,6(34),8,10(33),11,13,15(20),16,18-decaen-3-yl]-2-(tert-butoxy)acetic acid] displayed an EC50 of 0.008 µM.
